Values after ≈ are worked out from the molar mass of the structure shown. Ends that are not written are not given here. Peptide text beside a SMILES is read from it. * marks the point of attachment. For = O=C*

These results are taken from patent publication US12370235B2, “Synthetic, non-natural antimicrobial peptides inspired by Staphylococcus auricularis delta toxin” (University of Saskatchewan, priority 2021, dated 2025).

The test system of data set [1] is Candida duobushaemulonii AR 392. The data set can be described thus: MIC, YPD broth, CDC and FDA AR Candida isolate panel. It counts as cell-based. The note with it: Table 9 top part: titrations from 1.56 to 100 μg/mL. The method, boiled down: (§1)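 Overnight standing culture at 37° C in the presence of peptide serially diluted by halves. Starting cell density corresponded to an optical density of […].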

Another data set relates to Kodamae ohmeri AR 396. The description is as above. It counts as cell-based. The note with it: Table 9 top part: titrations from 1.56 to 100 μg/mL. The method, boiled down: as §1
In a further data set the target is SspA protease (Staphylococcus aureus, UniProt P0C1U8). Description: SspA protease treatment, LC/MS analysis. It counts as in vitro ADME. The note with it: in vitro, 37° C., ˜5 hours. The method, then: SspA protease treatment. SspA protease was resuspended at 2 mg/mL in 100 mM HEPES, pH 7.8. Proteolysis was achieved by incubation of 50 μg PSMs at 37° C. for ˜5 hours with 0.2 mg/mL SspA. The antimicrobial activity of the proteolytic products were assayed by spotting a 5 μL (˜45 μg) from each treated peptide on each test microorganism as described above.
HPLC/MS analysis. High performance liquid chromatography coupled to mass spectrometry (HPLC-MS) was conducted to assess the proteolytic cleavage of synthetic PSMs by the SspA protease, as described above. Both treated samples and untreated controls were incubated at 37° C. for 5 hours, and then frozen until HPLC/MS analysis. An Agilent Infinity II 1260 HPLC outfitted with a Phenomenex Lune C5 column (4.6×150 mm, 5 μm) was used to separate the peptide fragments using a binary solvent system consisting of solvent A (water, 0.05% formic acid) and solvent B (acetonitrile, 0.05% formic acid) operating at 0.7 mL/min. A 5 μl volume (˜4.5 μg) of each sample was injected at 10% solvent B, followed by a two-step gradient elution from 10 to 50% solvent B in 30 minutes, then 50 to 100% B in 10 minutes. The HPLC was coupled to an Advion CMS(L) single quadrupole mass detector through an electrospray ionization source. A line splitter from the HPLC to ESI source was used to deliver sample to the mass detector at 0.3 mL/min. An Advion expression-L CMS detector was used at low temperature and fragmentation settings: capillary temperature: 135° C., capillary voltage 120 V, source voltage offset 20 V, source gas temperature 135° C. and ESI voltage 3500 V. The range of ions detected was between 100 and 2,000 m/z.

Data set [2] deals with Mannheimia haemolytica ATCC 33393. Description: MIC, broth dilution. It counts as cell-based. Particulars: Table 11; highest concentration 25 μg/mL. The method in brief: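 Read-out is the lowest peptide concentration showing no growth after an overnight standing culture at 37 °C. Two-fold serial dilutions of 95%-pure peptide were tested against M. haemolytica ATCC 33393 at OD 6×10^−4 in cation-adjusted MH broth.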

The test system of another data set is C. albicans MYA-2876. Description: MIC, YPD broth. It counts as cell-based, Candida albicans. Particulars: Table 8. The method, boiled down: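 Yeast cells were diluted in YPD broth, and 180 μl aliquots were mixed with 20 μl of peptide from 2-fold serial dilutions in flat-bottom 96-well microtitre plates. Wells receiving 20 μl sterile water served as controls. After standing incubation overnight at 37° C, the MIC was taken as the lowest peptide concentration with no visible microbial growth.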

The test system of a further data set is HeLa cells. It counts as cell-based. The note with it: 24 h, alamarBlue. Here is the method: Peptide cytotoxicity. In vitro cytotoxicity was measured using the 3D EpiDerm skin tissues and HeLa Cells using a fluorescent reporter of cell viability, alamarBlue (ThermoFisher Scientific). 3D EpiDerm skin tissues (MatTek EPI-200-AFAB) were transferred to a 12 well plate containing 600 μL of AFAB-assay medium supplemented with 10% v/v alamarBlue. […] HeLa cells were seeded in a 96-well plate (2×10^4 cells/per well) and incubated overnight at 37° C. and 5% CO2 in a humidified incubator to prepare wells at ˜50% confluency of adherent cells. After the incubation, spent DMEM was removed and cells were washed with PBS. alamarBlue-containing medium was prepared by mixing Phenol Red-free DMEM with alamarBlue solution at a 9:1 ratio and a 180 μl volume was added to each well. Cells were treated with peptides varying from 3.25 to 200 μg/mL and then incubated for 24 h. The fluorescence intensities of treated cultures were normalized to values measured for an untreated control group. After the 24 h incubation period, alamarBlue fluorescence was measured at 590 nm upon excitation at 560 nm using Varioskan Lux plate reader (Thermo Scientific) plate reader.

Data set [3] can be described thus: Circular dichroism spectroscopy. It counts as physicochemical. Particulars: CD, 50% (v/v) TFE. The method in brief: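 Secondary structure of peptides dissolved in water at 0.3–0.5 mg/mL was assessed by CD. Spectra were recorded from 180 to 260 nm at room temperature in a 0.1 cm quartz cuvette; water and 50% (v/v) TFE conditions were compared.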
The next data set deals with Candida krusei AR 397. The data set can be described thus: MIC, YPD broth, CDC and FDA AR Candida isolate panel. It counts as cell-based. The note with it: Table 9 top part: titrations from 1.56 to 100 μg/mL. The method, boiled down:
as §1

Data set [4] concerns Saccharomyces cerevisiae AR 399. Described as above. It counts as cell-based. The note with it: Table 9 top part: titrations from 1.56 to 100 μg/mL. The method in brief: as §1
Data set [5] relates to Saccharomyces cerevisiae AR 400. The data set is described as above. It counts as cell-based. Particulars: Table 9 top part: titrations from 1.56 to 100 μg/mL. The method, boiled down:
as §1

The test system of data set [6] is Candida lusitaniae AR 398. The description is as above. It counts as cell-based. Particulars: Table 9 top part: titrations from 1.56 to 100 μg/mL. The method, boiled down: as §1
The next data set has as its system M. luteus ATCC 4698. Description: MIC, broth dilution. Particulars: Table 4; liquid broth. It counts as cell-based, Micrococcus luteus. The method in brief: (§2)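 Peptides (95% purity) were serially diluted 2-fold and mixed with bacteria diluted to OD 6×10^−4 in cation-adjusted Mueller Hinton broth. Standing cultures were incubated overnight at 37° C. MIC was the lowest peptide concentration with no observed growth.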

Data set [7] relates to S. aureus ATCC BAA-2313 (MRSA SCCmec type XI). Description: MIC, broth dilution. Particulars: Table 5; STIP3 variants, highest concentration 100 μg/mL. It counts as cell-based, Staphylococcus aureus. The method in brief: as §2
Data set [8] relates to S. aureus ATCC 33592 (MRSA SCCmec type III). Description: MIC, broth dilution. It counts as cell-based, Staphylococcus aureus. The note with it: Table 5; STIP3 variants, highest concentration 100 μg/mL. The method, boiled down: as §2
The test system of data set [9] is S. aureus ATCC BAA-42 (MRSA SCCmec type VI). The data set can be described thus: MIC, broth dilution. Particulars: Table 5; STIP3 variants, highest concentration 100 μg/mL. It counts as cell-based, Staphylococcus aureus. The method in brief:
as §2

Data set [10] relates to S. aureus ATCC BAA-2094 (MRSA SCCmec type V). The data set can be described thus: MIC, broth dilution. It counts as cell-based, Staphylococcus aureus. Particulars: Table 5; STIP3 variants, highest concentration 100 μg/mL. The method in brief:
as §2

Data set [11] has as its system S. aureus ATCC BAA-44 (MRSA SCCmec type I). Description: MIC, broth dilution. It counts as cell-based, Staphylococcus aureus. The note with it: Table 5; STIP3 variants, highest concentration 100 μg/mL. The method, boiled down: as §2
The test system of the next data set is S. aureus ATCC 29213. Description: MIC, broth dilution. It counts as cell-based, Staphylococcus aureus. The method in brief: as §2
Data set [12] deals with S. aureus ATCC BAA-41 (MRSA SCCmec type II). Description: MIC, broth dilution. It counts as cell-based, Staphylococcus aureus. Particulars: Table 5; STIP3 variants, highest concentration 100 μg/mL. The method in brief:
as §2

SspA protease, sequence (P0C1U8 69-336): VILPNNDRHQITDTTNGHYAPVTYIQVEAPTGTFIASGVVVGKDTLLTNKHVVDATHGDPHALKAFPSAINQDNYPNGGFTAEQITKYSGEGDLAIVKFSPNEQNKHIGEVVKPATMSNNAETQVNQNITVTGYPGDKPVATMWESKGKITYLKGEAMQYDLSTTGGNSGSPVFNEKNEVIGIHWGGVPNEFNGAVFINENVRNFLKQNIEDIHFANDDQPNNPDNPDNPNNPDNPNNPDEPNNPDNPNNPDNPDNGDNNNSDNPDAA

As to `CC[C@H](C)[C@H](NC(=O)[C@H](Cc1c[nH]c2ccccc12)NC(=O)[C@H](CCCCN)NC(=O)[C@@H](NC(=O)[C@H](CC(C)C)NC(=O)CNC(=O)CNC(=O)[C@@H](NC(=O)[C@@H](NC(=O)[C@H](CCC(=O)O)NC(=O)[C@@H](NC(=O)[C@@H](NC(=O)[C@H](CC(=O)O)NC(=O)[C@H](CCCCN)NC(=O)[C@@H](NC(=O)[C@H](CCSC)NC=O)[C@@H](C)O)[C@@H](C)CC)C(C)C)[C@@H](C)O)C(C)C)C(C)C)C(=O)N[C@@H](CC(C)C)C(=O)N[C@@H](CC(=O)O)C(=O)N[C@H](C(=O)N[C@H](C(=O)N[C@@H](CCCCN)C(=O)N[C@@H](CCCCN)C(=O)N[C@@H](Cc1ccccc1)C(=O)N[C@@H](C)C(=O)O)C(C)C)[C@@H](C)O` [δ-toxin, reference compound] (For-MTKDIVETVGGLVKWILDTVKKFA-OH), in [1], the “MIC (μg/mL) Candida duobushaemulonii AR 392” value was “> (MIC values reported at the top of the table (above the double line) are based on titrations from 1.56 to 100 μg/mL)”. Further, the “MIC (μg/mL) Kodamae ohmeri AR 396” value in the data set with Kodamae ohmeri AR 396 is listed as “> (MIC values reported at the top of the table (above the double line) are based on titrations from 1.56 to 100 μg/mL)”. For the same molecule, the “susceptibility to SspA cleavage” value at SspA protease was “formylation protected against proteolysis”. Also, the “MIC (μg/mL) M. haemolytica” value in data set [2] is reported as “> (> symbol indicates that no inhibition was observed at the highest concentration of peptide tested: 25 μg/mL)”. Further, in the data set with C. albicans MYA-2876, the “MIC C. albicans MYA-2876” value is “> (> symbol indicates that no inhibition was observed at the highest concentration of peptide tested: 100 μg/mL)”. Moreover, in the data set with HeLa cells, the “IC50, HeLa cell survival” value was 230 ± 30 µg/mL (≈ 84.6 µM). Besides, the “α helicity (%)” value in [3] is 88%.
For the molecule “TVGGLVKWILDTVKKFA [STIP3-1, TVGGLVKWILDTVKKFA]”, the “MIC (μg/mL) Candida krusei AR 397” value against Candida krusei AR 397 is 25 µg/mL. Also, in [4], the “MIC (μg/mL) Saccharomyces cerevisiae AR 399” value was found to be 50 µg/mL. Further, the “MIC (μg/mL) Saccharomyces cerevisiae AR 400” value in data set [5] is 12.5 µg/mL. Also, in data set [6], the “MIC (μg/mL) Candida lusitaniae AR 398” value is 100 µg/mL. The “MIC (μg/mL) M. luteus” value with M. luteus ATCC 4698 was found to be 12.5 µg/mL. Besides, at SspA protease, the “susceptibility to SspA cleavage” value is “cleave the bioactive peptide into an inactive mixture”. For the same molecule, in the data set on C. albicans MYA-2876, the “MIC C. albicans MYA-2876” value is 25 µg/mL. In the data set with HeLa cells, the “IC50, HeLa cell survival” value was determined as 200 ± 30 µg/mL. The “MIC S. aureus ATCC BAA 2313 (XI)” value in data set [7] worked out at 100 µg/mL. The “MIC S. aureus ATCC 33592 (III)” value in data set [8] stood at 100 µg/mL. In data set [9], the “MIC S. aureus ATCC BAA 42 (VI)” value came out at 100 µg/mL. The “MIC S. aureus ATCC BAA 2094 (V)” value in [10] came to 100 µg/mL. Besides, the “MIC S. aureus ATCC BAA 44 (I)” value in [11] stood at 100 µg/mL. In the data set with S. aureus ATCC 29213 (Table 4, liquid broth), the “MIC (μg/mL) S. aureus” value amounted to 100 µg/mL. Besides, in the data set with S. aureus ATCC 29213 (Table 5, STIP3 variants, highest concentration 100 μg/mL), the “MIC S. aureus ATCC 29213” value amounted to 100 µg/mL. Further, in data set [12], the “MIC S. aureus ATCC BAA 41 (II)” value came to 100 µg/mL.
